# Measurements taken from patent US20110033418A1, “TREATMENT OF DISEASES CAUSED BY VIRAL INFECTION” (priority 2009, published 2011).
# Columns and labels:
# Ljungan virus (LV) [1] = assay: Diabetes in male CD-1 mice infected with LV in utero and subjected to stress (glucose tolerance test, abdominal fat, serum insulin); format: in vivo
# Method: Animals CD-1 (ICR) mice were obtained from Br Charles River laboratories, Germany. Glucose tolerance test was performed to diagnose diabetes. In this test 2 g glucose per kg body weight was injected intraperitoneally (as 100 mg glucose/ml solution). Blood glucose was measured (Medisence Precision PCx Abbott Laboratories) before the injection of glucose and after 60 and 120 min. Diabetes was defined as a blood glucose level above 200 mg/dL at 120 min. Abdominal fat in male mice was measured by dissecting out the bilateral scrotal fat cushion. The total weight of both fat cushions was used.
# Analysis of insulin Serum insulin was measured using a rat insulin ELISA kit (Mercodia AB).
# Transmission of LV to CD-1 mice followed by antiviral treatments Pregnant outbred CD1 mice were infected intraperitoneally with 1000 ID50 (determined by intra cerebral titration in suckling mice) units of LV145 SL two days after conception. Control animals were given an injection of saline. All female mice were kept in individual cages and followed for the development of gestational diabetes, pregnancy outcome and development of diabetes in the offspring. In all the pregnant mice mild stress was induced by adding glucose (100 g/L) to drinking water, performing weekly weights and a glucose tolerance test at the end of the pregnancy. At five weeks of age antiviral therapy to the male offsprings, using LV-specific murine antiserum or the oral antiviral compound Pleconaril (200 mg per kg body weight) or a combination of both, were given once a day for four consecutive days. The control groups of infected and uninfected male offsprings were untreated. From the age of 25 days all mice were subjected to stress by placing 4-5 male mice from different litters in the same cage. At 15 weeks of age the animals were subjected to a glucose tolerance test. Serum insulin levels and abdominal fat were measured.
# Statistics The glucose tolerance test in the CD-1 mice was evaluated by Fisher's exact one sided test. Otherwise statistical significance in the CD-1 mice was evaluated by Student's t-test. P values <0.05 were considered significant. Data are presented as means±s.e.m.
# LV = assay: Inhibitory effect on LV in tissue culture; format: cell-based
# From the text: Antiviral agents Pleconaril (VP-63843) a novel, orally bio-available, broad spectrum anti-picorna-viral agent developed as a therapeutic tool in entero- and rhino viral infections, was used alone or in combination with specific antiserum for intervention.
# Ljungan virus (LV) [2] = settings: number of 7 mice; 200 mg per kg orally daily for 50 days from day 35; terminated at day 120
# Method: An ALS mouse model was used in which the mice are transgenic for superoxide dismutase 1 (SOD1). […] The inventors treated the LV infection in these mice using two different antiviral compounds separately and in combination. One group of mice was kept as a control.
# Groups of seven 35 day old B6SJL-Tg-SOD1-G93 mice were treated with two antiviral compounds, Pleconaril and Ribavirin (200 mg of each per kg body weight), orally with a tube connected to a syringe daily for 50 consecutive days. Mice were observed every day for signs of paralysis.
# The experiment was terminated at day 120 when all untreated animals were expected to have developed severe paralysis and death.
SMILES,"No. with blood glucose >200 mg/dL at 120 min (percent of group) (Ljungan virus (LV) [1]; glucose tolerance test at 15 weeks of age, LV infected, stressed male CD-1 mice)","Blood glucose at 60 min (Ljungan virus (LV) [1]; glucose tolerance test, 2 g glucose per kg i.p., means±s.e.m.)","No. with blood glucose >200 mg/dL at 120 min (Ljungan virus (LV) [1]; number of mice, glucose tolerance test at 15 weeks of age, LV infected, stressed male CD-1 mice, treatment once a day for four days at five weeks of age)","Serum insulin (Ljungan virus (LV) [1]; rat insulin ELISA, means±s.e.m.)","Abdominal fat (Ljungan virus (LV) [1]; total weight of bilateral scrotal fat cushions, means±s.e.m.)",inhibitory effect on LV (LV),Mice with paralysis (including death) (Ljungan virus (LV) [2]),Mice without paralysis (Ljungan virus (LV) [2])
"Cc1cc(CCCOc2c(C)cc(-c3noc(C(F)(F)F)n3)cc2C)on1 [Pleconaril, (3-[3,5-dimethyl-4-[[3-(3-methyl-5-isoxazolyl)propyl]oxy]phenyl]-5-(trifluoromethyl)-1,2,4-oxadiazole)]",9%,211 ± 23.8 mg/dL,1,4.15 ± 1.52 µg/L,2.1 ± 0.31 g,some inhibitory effect on LV,5,2
"NC(=O)c1ncn([C@@H]2O[C@H](CO)[C@@H](O)[C@H]2O)n1 [Ribavirin, 1-[(2R,3R,4S,5R)-3,4-dihydroxy-5-(hydroxymethyl)oxolan-2-yl]-1H-1,2,4-triazole-3-carboxamide]",–,–,–,–,–,–,6,1
